The values that follow come from paper PMC3755730 (The Journal of neuroscience : the official journal of the …, 2013).

The target of assay [1] is N2B (GluN2B), in N1/N2B (B-type) NMDA receptor (Mus musculus, UniProt Q01097). Description: whole-cell patch clamp, EPSC dose-inhibition in N2A knockout neurons. Type of assay: cell-based. (In general: The patch-clamp technique gives a direct electrical read-out from membranes.)
Assay [2] addresses N2A (GluN2A), in N1/N2A (A-type) NMDA receptor (Mus musculus, UniProt P35436). Description: whole-cell patch clamp, EPSC dose-inhibition in N2B knockout neurons. Type of assay: cell-based.

N2A (GluN2A), in N1/N2A (A-type) NMDA receptor, sequence (P35436 23-1464, other chains not shown): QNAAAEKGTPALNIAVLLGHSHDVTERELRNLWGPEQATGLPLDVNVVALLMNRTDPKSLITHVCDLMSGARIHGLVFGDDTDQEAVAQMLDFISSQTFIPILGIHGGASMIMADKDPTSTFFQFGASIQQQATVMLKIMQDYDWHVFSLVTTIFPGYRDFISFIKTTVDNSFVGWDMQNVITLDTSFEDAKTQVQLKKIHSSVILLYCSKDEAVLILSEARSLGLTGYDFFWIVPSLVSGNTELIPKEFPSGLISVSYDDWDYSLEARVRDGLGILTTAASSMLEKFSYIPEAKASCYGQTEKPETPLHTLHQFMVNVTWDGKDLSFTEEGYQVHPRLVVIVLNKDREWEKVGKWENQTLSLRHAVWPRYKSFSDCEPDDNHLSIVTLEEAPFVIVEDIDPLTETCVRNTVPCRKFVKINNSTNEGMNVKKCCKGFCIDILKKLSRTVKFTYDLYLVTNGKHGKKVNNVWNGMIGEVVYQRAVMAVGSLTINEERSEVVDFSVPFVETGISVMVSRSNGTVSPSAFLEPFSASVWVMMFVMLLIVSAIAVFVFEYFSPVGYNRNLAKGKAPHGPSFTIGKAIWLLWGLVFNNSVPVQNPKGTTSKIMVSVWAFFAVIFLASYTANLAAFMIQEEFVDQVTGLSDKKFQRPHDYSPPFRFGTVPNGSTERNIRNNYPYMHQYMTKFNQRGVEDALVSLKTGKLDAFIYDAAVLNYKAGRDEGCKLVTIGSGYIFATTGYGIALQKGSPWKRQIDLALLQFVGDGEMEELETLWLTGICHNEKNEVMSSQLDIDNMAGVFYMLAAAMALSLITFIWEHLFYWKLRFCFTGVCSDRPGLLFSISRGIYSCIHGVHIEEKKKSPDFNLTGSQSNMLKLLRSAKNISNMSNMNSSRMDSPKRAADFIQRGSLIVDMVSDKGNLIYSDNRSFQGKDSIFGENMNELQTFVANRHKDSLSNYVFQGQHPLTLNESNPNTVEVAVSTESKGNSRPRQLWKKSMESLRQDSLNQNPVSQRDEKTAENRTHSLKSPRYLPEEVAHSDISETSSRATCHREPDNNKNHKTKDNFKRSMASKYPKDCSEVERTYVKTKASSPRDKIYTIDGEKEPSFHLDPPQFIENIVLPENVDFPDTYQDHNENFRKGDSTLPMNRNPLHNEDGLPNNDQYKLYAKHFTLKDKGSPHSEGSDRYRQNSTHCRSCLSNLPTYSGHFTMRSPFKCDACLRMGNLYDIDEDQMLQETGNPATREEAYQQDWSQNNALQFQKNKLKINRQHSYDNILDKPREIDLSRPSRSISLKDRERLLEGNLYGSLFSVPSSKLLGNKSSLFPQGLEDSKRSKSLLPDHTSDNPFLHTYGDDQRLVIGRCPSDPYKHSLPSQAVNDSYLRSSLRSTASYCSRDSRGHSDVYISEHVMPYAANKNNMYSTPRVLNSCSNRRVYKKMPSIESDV
N2B (GluN2B), in N1/N2B (B-type) NMDA receptor, sequence (Q01097 27-1482, other chains not shown): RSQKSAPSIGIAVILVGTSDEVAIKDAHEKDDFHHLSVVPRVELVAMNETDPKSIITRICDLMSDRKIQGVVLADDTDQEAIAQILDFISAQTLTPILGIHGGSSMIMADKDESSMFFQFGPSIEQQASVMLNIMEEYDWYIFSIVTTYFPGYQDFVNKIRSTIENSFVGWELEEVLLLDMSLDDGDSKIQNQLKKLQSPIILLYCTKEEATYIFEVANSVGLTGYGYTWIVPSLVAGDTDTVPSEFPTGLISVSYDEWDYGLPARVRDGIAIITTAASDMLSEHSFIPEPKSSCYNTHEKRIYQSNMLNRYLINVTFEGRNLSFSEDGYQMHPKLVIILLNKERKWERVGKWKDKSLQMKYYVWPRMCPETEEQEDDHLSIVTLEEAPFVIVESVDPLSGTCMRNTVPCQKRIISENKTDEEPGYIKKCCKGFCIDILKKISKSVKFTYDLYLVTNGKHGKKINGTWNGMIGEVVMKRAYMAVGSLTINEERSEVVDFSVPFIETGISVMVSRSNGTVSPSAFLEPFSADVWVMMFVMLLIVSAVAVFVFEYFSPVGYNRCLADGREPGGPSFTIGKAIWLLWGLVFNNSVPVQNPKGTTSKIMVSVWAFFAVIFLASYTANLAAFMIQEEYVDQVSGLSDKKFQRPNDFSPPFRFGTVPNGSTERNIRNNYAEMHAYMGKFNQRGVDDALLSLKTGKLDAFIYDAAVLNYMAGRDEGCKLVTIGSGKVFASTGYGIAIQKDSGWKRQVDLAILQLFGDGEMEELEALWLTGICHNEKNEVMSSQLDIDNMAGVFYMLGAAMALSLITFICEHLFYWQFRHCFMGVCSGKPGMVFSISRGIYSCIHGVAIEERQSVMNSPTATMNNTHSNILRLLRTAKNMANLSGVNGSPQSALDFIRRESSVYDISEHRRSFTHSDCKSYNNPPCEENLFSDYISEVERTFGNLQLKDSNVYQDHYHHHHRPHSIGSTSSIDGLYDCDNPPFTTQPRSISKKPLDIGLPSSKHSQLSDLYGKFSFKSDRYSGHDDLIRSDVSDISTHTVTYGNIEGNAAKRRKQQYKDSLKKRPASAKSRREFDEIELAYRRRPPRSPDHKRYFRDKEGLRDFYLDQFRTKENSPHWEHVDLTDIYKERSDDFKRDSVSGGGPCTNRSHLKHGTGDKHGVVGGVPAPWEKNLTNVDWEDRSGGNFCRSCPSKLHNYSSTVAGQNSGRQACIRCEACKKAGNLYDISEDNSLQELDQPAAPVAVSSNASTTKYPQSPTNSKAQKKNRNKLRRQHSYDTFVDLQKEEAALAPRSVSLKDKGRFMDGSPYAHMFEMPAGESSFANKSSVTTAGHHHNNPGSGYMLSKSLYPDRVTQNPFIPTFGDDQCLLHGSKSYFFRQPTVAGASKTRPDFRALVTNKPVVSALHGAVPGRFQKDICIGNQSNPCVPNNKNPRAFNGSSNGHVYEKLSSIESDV

As a reminder, the IC50 is the concentration that gives 50% inhibition. Low readings indicate greater potency in that assay, high ones weaker potency in that assay. With `C[C@H](N[C@@H](c1cccc2[nH]c(=O)c(=O)[nH]c12)P(=O)(O)O)c1ccc(Br)cc1` [NVP-AAM077], the IC50 was found to be 119 nM in assay [1] and 10 nM in assay [2].
